Where “and” joins values, the source holds several entries; their conditions need not be identical. Identical values can stand only once. Marks after values point to notes of the source that are not given here.
How the values were obtained:
[1] = Repeated dose IV LG or FG: indices of renal injury and tolerability in foals
Experimental: Subsequently, twelve healthy foals were administered either LG or FG at 6.6 mg/kg IV q 24 hours for 7 doses, and urinary protein, creatinine, γ-glutamyltransferase, and electrolytes were measured on days 0, 3 and 7 to quantify renal injury. Concentrations of gentamicin were measured using HPLC-MS.
Each dose was diluted in 250 ml of sterile 0.9% saline and administered over 15 minutes via an indwelling 14 G catheter placed in a jugular vein. Blood samples for plasma separation and measurement of gentamicin concentrations were obtained on day 1 and on day 7 at the times listed for study 1. Bronchoalveolar lavage fluid was collected 2, 6 and 24 hours after the end of infusion on day 7. Urine was collected the day prior to the first drug dose (day 0) and again 2 hours after the end of the infusion on days 3 and 7. Foals were sedated with xylazine hydrochloride (1.1 mg/kg bwt IV) and anesthetized with ketamine (2.2 mg/kg bwt IV) to allow passage of a urinary catheter using aseptic techniques. Urinalysis was performed and urine and concurrently obtained plasma samples were submitted for measurement of creatinine, γ-glutamyltransferase (GGT), protein, calcium, chloride, magnesium, sodium, and potassium concentrations. Fractional excretion of electrolytes, urinary GGT to creatinine ratio, and urinary protein to creatinine ratios were calculated. Prior to analysis for gentamicin concentration by LC-MS, urine and plasma samples were centrifuged at 400×g for 10 minutes and the supernatant was frozen at −80° C. until assayed.
Normality and equality of variance of the data were assessed with use of the Shapiro-Wilk and Levene tests, respectively. Data that were not normally distributed were log or rank transformed. The paired t test or the Wilcoxon rank sum test was used to compare IV pharmacokinetic variables between LF and FG. The effects of drug (LG vs FG), administration route (IV vs nebulized) and the interactions between drug and administration route on PELF and BAL cell pharmacokinetic variables were assessed using a two-way ANOVA for repeated measurement. For study 2, the effects of drug (LG vs FG), time (day 0, day 3, and day 7), and the interactions between drug and time on renal indices were assessed using a two-way ANOVA with one factor repetition (time). When warranted, multiple pairwise comparisons were done by use of the Holm-Sidak test. The paired t test or the Wilcoxon rank sum test was used to compare IV pharmacokinetic variables obtained on day 1 to those obtained on day 7. Significance was set at P<0.05.

[2] = Plasma pharmacokinetics after single IV or nebulized dose in foals
Experimental: Eight healthy 5-7-week-old Quarter Horse foals were randomly assigned to one of 4 groups using a balanced Latin-square design. Foals were considered healthy on the basis of physical examinations, complete blood cell counts and plasma biochemical profiles. […] The liposome gentamicin formulation was nebulized using Nortev FLEXINEB. For each treatment, gentamicin was administered over a period of 15 minutes. There was a washout period of 7-14 days between each treatment.
For the BAL collection, foals were sedated with xylazine and butorphanol. Concentrations of gentamicin were measured in plasma and in bronchoalveolar cells using HPLC-MS.
Eight foals received a single IV or nebulized dose (6.6 mg/kg bwt) of FG^h or LG in a balanced Latin square design. Beginning at 5-7 weeks of age, every foal received each of the 4 possible drug-route combinations with a 14-day washout period between each administration. Intravenous FG and LG were diluted in 250 ml of sterile 0.9% saline and administered via a jugular catheter as a constant rate infusion over 15 min. Nebulized FG and LG were administered by inhalation over 15 minutes via a commercial equine nebulizer. To ensure equivalent rate of delivery, FG was diluted to the same volume as LG with sterile 0.9% saline. Particle size of nebulized LG was verified using laser diffraction. Blood samples for plasma separation were obtained from a catheter placed in the contralateral jugular vein prior to each drug administration, and at 5, 10, 20, 30, 45 minutes and 1, 1.5, 2, 3, 4, 6, 8, 12, 16, 24 and 48 hours after the end of the 15 minute IV infusion or nebulization period. Bronchoalveolar lavage (BAL) fluid was collected at 2, 4, 8, 24, and 48 hours. Foals were sedated with xylazine hydrochloride (0.5 mg/kg bwt IV) and butorphanol tartrate (0.07 mg/kg bwt IV) prior to collection of BAL fluid. Prior to analysis for gentamicin concentration, blood samples were centrifuged at 400×g for 10 minutes and the resultant plasma frozen at −80° C. until assayed.
Briefly, gentamicin was extracted from plasma (250 μl) and urine (500 μl) using protein precipitation with an equal volume of ice-cold 90:10 acetonitrile: 0.2% formic acid (v/v). Extracted samples were centrifuged (2° C. at 10,000×g for 10 min) twice. Two-hundred microliters of the supernatants were transferred to polypropylene inserts for injection. The supernatant derived from the lyzed BAL cell pellet was transferred to polypropylene inserts for direct injection without further processing. […] An aliquot of the resultant supernatant was then mixed with an equal volume of ice-cold acetonitrile, centrifuged (2° C. at 10,000×g for 10 minutes) and 200 μl was transferred to polypropylene inserts for injection. Calibration standards were prepared in drug-free foal plasma, BAL fluid or urine and then extracted as described above so that standard curves specific to each biologic matrix could be constructed. […] Analyte separation and LC-MS/MS measurement of gentamicin were performed exactly as described previously (Burton et al. (2013) Equine Vet J. 45, 507-511) except that BAL fluid samples, were introduced in the MS with a flow rate of 0.18 ml/minutes and a total run time of 8 minutes due to relatively low gentamicin concentration in those samples.
For each foal, plasma, PELF, and BAL cell concentration versus time data were analyzed using commercial software. Noncompartmental analysis was used for PELF and BAL cell data.

[3] = repeated daily IV dosing, 6 foals per group
[4] = plasma, IV 6.6 mg/kg, 8 foals, Table 4
[5] = plasma, IV 6.6 mg/kg, 8 foals, listed as FG, 6.6 mg/kg

gentamicin sulfate [Free Gentamicin]
FE Ca^2+ ([1]; Day 0 (before first dose)): 3.5 ± 3.4% | FE Cl^− ([1]; Day 0 (before first dose)): 0.60 ± 0.29% | FE K^+ ([1]; Day 0 (before first dose)): 10.1 ± 4.9% | FE Mg^2+ ([1]; Day 0 (before first dose)): 13.9 ± 8.91% | FE Na^+ ([1]; Day 0 (before first dose)): 0.28 ± 0.4^a % | Plasma creatinine ([1]; Day 0 (before first dose)): 116.39 ± 20.48 µmol/L | USG (urine specific gravity) ([1]; Day 0 (before first dose)): 1.003 ± 0.002 | Urine pH ([1]; Day 0 (before first dose)): 7.2 ± 0.7 | FE Ca^2+ ([1]; Day 3): 1.9 ± 1.1% | FE Cl^− ([1]; Day 3): 0.6 ± 0.2% | FE K^+ ([1]; Day 3): 18.4 ± 12.2% | FE Mg^2+ ([1]; Day 3): 11.2 ± 6.5% | FE Na^+ ([1]; Day 3): 0.12 ± 0.05^a % | Plasma creatinine ([1]; Day 3): 120.81 ± 21.41 µmol/L | USG (urine specific gravity) ([1]; Day 3): 1.008 ± 0.008 | Urine pH ([1]; Day 3): 6.3 ± 0.8 | difference from baseline (day 0) in urine pH ([1]; Day 3): −0.83* | FE Ca^2+ ([1]; Day 7): 1.6 ± 1.4% | FE Cl^− ([1]; Day 7): 0.78 ± 0.19% | FE K^+ ([1]; Day 7): 16.8 ± 10.6% | FE Mg^2+ ([1]; Day 7): 9.8 ± 4.7% | FE Na^+ ([1]; Day 7): 0.27 ± 0.12^b % | Plasma creatinine ([1]; Day 7): 117.87 ± 24.79 µmol/L | USG (urine specific gravity) ([1]; Day 7): 1.002 ± 0.001 | Urine pH ([1]; Day 7): 6.3 ± 0.3 | difference from baseline (day 0) in urine pH ([1]; Day 7): −1.67* | casts on urine sediment analysis ([1]; day 7, 6 foals per group): One foal | mild self-limiting diarrhea during treatment [1, 3]: One foal | thrombophlebitis [1, 3]: 2 foals | Plasma concentrations after nebulized administration ([2]; nebulized 6.6 mg/kg, at most time points): 570 ng/mL | A (intercept of the distribution phase) ([2]; plasma, IV 6.6 mg/kg, 8 foals): 53.24 ± 25.83 µg/mL | AUC0-t ([2]; plasma, IV 6.6 mg/kg, 8 foals): 96700 ± 63800 ng·h/mL | AUC0-∞ ([2]; plasma, IV 6.6 mg/kg, 8 foals): 98400 ± 64300 ng·h/mL | AUMC0-∞ ([2]; plasma, IV 6.6 mg/kg, 8 foals): 360.2 ± 364.0 μg · h^2/ml | B (intercept of the elimination phase) ([2]; plasma, IV 6.6 mg/kg, 8 foals): 2.50 ± 1.50 µg/mL | CL ([2]; plasma, IV 6.6 mg/kg, 8 foals): 1.42 ± 0.615 mL/min/kg | MRT ([2]; plasma, IV 6.6 mg/kg, 8 foals): 3.18 ± 1.25 h | t1/2α (distribution half-life) ([2]; plasma, IV 6.6 mg/kg, 8 foals): 0.97 ± 0.45 | α (rate constant of the distribution phase) ([2]; plasma, IV 6.6 mg/kg, 8 foals): 0.82 ± 0.28 h⁻¹ | β (rate constant of the elimination phase) ([2]; plasma, IV 6.6 mg/kg, 8 foals): 0.12 ± 0.04 h⁻¹ | C0.5 h [2, 4]: 71780 ± 92140 ng/mL | C48 h [2, 4]: 90 ± 90 ng/mL | t1/2β ([2]; plasma, IV 6.6 mg/kg, 8 foals, Table 4, listed as FG, 6.6 mg/kg): 6.2 ± 1.8 h and 6.20 ± 1.77 h | C1 h [2, 5]: 32600 ± 25280 ng/mL | C24 h [2, 5]: 250 ± 190 ng/mL | C0.5 h ([2]; plasma, IV 6.6 mg/kg, Table 1): 71800 ± 92100 ng/mL | C48 h ([2]; plasma, IV 6.6 mg/kg, Table 1): 100 ± 90 ng/mL | t1/2β ([2]; plasma, IV 6.6 mg/kg, Table 1, 6.6 mg/kg): 6.2 ± 1.8 h | t1/2β ([2]; plasma, IV 6.6 mg/kg, Table 1, listed as free gentamicin, 6.6 mg/kg): 6.2 ± 1.8 h

— patent US20160193148A1, “LIPOSOMAL FORMULATIONS FOR THE TREATMENT OF BACTERIAL INFECTIONS” (UNIVERSITY OF GEORGIA RESEARCH FOUNDATION, INC., priority 2013, published 2016)
